Results on 39 compounds are retold here after patent publication US8435980B2 (AbbVie Inc., priority 2009, dated 2013).

For the first test, the target named is T1, Cdc7 (BEV coexpressed huCDC7/DBF4) (Homo sapiens, UniProt O00311).
T1 construct: made in house; host or cells: BEV (baculovirus expression vector) co-expression; insect cells are implied but no cell line is named
T1 sequence (O00311 whole entry): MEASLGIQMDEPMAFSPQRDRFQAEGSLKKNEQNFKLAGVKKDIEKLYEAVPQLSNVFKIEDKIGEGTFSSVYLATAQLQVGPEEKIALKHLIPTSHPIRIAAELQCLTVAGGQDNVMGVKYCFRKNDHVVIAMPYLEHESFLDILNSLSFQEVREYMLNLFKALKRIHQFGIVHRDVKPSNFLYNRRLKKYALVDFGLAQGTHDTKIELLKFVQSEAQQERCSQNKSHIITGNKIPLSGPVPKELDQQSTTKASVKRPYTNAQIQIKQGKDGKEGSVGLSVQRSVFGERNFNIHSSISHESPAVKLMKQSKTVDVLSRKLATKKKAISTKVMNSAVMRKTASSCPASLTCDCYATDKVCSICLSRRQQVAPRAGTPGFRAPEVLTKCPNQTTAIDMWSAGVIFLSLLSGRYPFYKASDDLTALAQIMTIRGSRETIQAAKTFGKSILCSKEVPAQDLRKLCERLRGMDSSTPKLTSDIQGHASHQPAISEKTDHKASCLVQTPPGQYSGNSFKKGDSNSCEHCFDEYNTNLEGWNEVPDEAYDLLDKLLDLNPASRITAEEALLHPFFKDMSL
T1 sequence (Q9UBU7 whole entry partner): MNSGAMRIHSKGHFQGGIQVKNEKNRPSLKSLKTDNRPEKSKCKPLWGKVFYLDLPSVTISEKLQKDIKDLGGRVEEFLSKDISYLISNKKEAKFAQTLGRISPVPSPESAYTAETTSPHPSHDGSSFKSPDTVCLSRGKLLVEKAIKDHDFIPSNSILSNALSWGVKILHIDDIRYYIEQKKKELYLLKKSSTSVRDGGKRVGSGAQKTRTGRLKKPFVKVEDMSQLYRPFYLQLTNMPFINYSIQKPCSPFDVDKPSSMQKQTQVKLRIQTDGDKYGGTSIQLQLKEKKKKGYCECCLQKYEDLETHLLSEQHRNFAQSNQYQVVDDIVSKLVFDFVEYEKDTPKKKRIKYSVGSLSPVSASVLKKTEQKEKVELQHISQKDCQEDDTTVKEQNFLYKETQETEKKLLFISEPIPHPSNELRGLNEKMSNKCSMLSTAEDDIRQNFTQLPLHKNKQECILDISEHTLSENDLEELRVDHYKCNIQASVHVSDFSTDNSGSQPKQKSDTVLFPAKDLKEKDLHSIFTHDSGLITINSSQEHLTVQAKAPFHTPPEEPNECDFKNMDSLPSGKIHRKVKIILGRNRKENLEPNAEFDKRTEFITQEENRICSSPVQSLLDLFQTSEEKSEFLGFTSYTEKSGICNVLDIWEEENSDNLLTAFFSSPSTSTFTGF
Put plainly: Cdc7 enzyme inhibition assay ([33P]ATP, biotinylated peptide substrate, FlashPlate). It is filed as biochemical.
Settings: not given
The procedure:
Cdc7 (BEV coexpressed huCDC7/DBF4) is prepared internally. Cdc7 assays are conducted as follows with final concentrations as listed. […] Reactions are quenched after 1 hr by the addition of 90 μL stop buffer (50 mM EDTA, 2M NaCl). […] (Ki) for exemplary compounds.
In the case of `Clc1cc(-c2c[nH]c3ncccc23)cc(NC2CCCCC2)n1` [Example 1, 6-Chloro-N-cyclohexyl-4-(1H-pyrrolo[2,3-b]pyridin-3-yl)pyridin-2-amine], the inhibition constant Ki was under 10 nM.
As for `Clc1cc(-c2c[nH]c3ncccc23)cc(NCc2ccccc2)n1` [Example 2, N-Benzyl-6-chloro-4-(1H-pyrrolo[2,3-b]pyridin-3-yl)pyridin-2-amine], the Ki was under 10 nM.
`C=CCNc1cc(-c2c[nH]c3ncccc23)cc(Cl)n1` [Example 3, N-Allyl-6-chloro-4-(1H-pyrrolo[2,3-b]pyridin-3-yl)pyridin-2-amine] displayed an inhibition constant (Ki) of under 10 nM.
Regarding `Clc1cc(-c2c[nH]c3ncccc23)cc(N2CCCCC2)n1` [Example 4, 3-(2-chloro-6-piperidin-1-ylpyridin-4-yl)-1H-pyrrolo[2,3-b]pyridine], the Ki was 10 to 100 nM.
On the same count and under the same terms, next, `CN(Cc1ccccc1)c1cc(-c2c[nH]c3ncccc23)cc(Cl)n1` [Example 5, N-benzyl-6-chloro-N-methyl-4-(1H-pyrrolo[2,3-b]pyridin-3-yl)pyridin-2-amine]: under 10 nM; `FC1(F)CN(c2cc(-c3c[nH]c4ncccc34)cc(Cl)n2)C1` [Example 6, 3-[2-chloro-6-(3,3-difluoroazetidin-1-yl)pyridin-4-yl]-1-1H-pyrrolo[2,3-b]pyridine]: 10 to 100 nM; `Cc1cccc(-c2cc(-c3c[nH]c4ncccc34)cc(Cl)n2)c1C` [Example 7, 3-[2-chloro-6-(2,3-dimethylphenyl)pyridin-4-yl]-1H-pyrrolo[2,3-b]pyridine]: 10 to 100 nM.
The same measure, in the same setting: as for `Clc1cc(-c2c[nH]c3ncccc23)cc(NC2CCOCC2)n1` [Example 8, 6-chloro-4-(1H-pyrrolo[2,3-b]pyridin-3-yl)-N-tetrahydro-2H-pyran-4-ylpyridin-2-amine], the figure is under 10 nM.
Compound `OC1CCCCC1Nc1cc(-c2c[nH]c3ncccc23)cc(Cl)n1` (stereo not drawn) [Example 9, 2-{[6-chloro-4-(1H-pyrrolo[2,3-b]pyridin-3-yl)pyridin-2-yl]amino}cyclohexanol] came in with a Ki of under 10 nM.
Consider `COCCNc1cc(-c2c[nH]c3ncccc23)cc(Cl)n1` [Example 10, 6-chloro-N-(2-methoxyethyl)-4-(1H-pyrrolo[2,3-b]pyridin-3-yl)pyridin-2-amine], for which the inhibition constant Ki is under 10 nM.
As to `OCCNc1cc(-c2c[nH]c3ncccc23)cc(Cl)n1` [Example 11, 2-{[6-chloro-4-(1H-pyrrolo[2,3-b]pyridin-3-yl)pyridin-2-yl]amino}ethanol], the inhibitory constant (Ki) was under 10 nM.
The compound `COCCN(CCOC)c1cc(-c2c[nH]c3ncccc23)cc(Cl)n1` [Example 12, 6-chloro-N,N-bis(2-methoxyethyl)-4-(1H-pyrrolo[2,3-b]pyridin-3-yl)pyridin-2-amine] came in with an inhibition constant Ki of 10 to 100 nM.
Still for that read-out and setting: next, `Clc1cc(-c2c[nH]c3ncccc23)cc(NCC2CCCO2)n1` (stereo not drawn) [Example 13, 6-chloro-4-(1H-pyrrolo[2,3-b]pyridin-3-yl)-N-(tetrahydrofuran-2-ylmethyl)pyridin-2-amine]: under 10 nM; `O[C@H]1CC[C@H](Nc2cc(-c3c[nH]c4ncccc34)cc(Cl)n2)CC1` [Example 14, Trans 4-{[6-chloro-4-(1H-pyrrolo[2,3-b]pyridin-3-yl)pyridin-2-yl]amino}cyclohexanol]: under 10 nM.
Compound `NC1CCC(Nc2cc(-c3c[nH]c4ncccc34)cc(Cl)n2)CC1` (stereo not drawn) [Example 15, N-[6-chloro-4-(1H-pyrrolo[2,3-b]pyridin-3-yl)pyridin-2-yl]cyclohexane-1,4-diamine] returned an inhibition constant Ki of under 10 nM.
`COC1CCCCC1Nc1cc(-c2c[nH]c3ncccc23)cc(Cl)n1` (stereo not drawn) [Example 16, 6-chloro-N-(2-methoxycyclohexyl)-4-(1H-pyrrolo[2,3-b]pyridin-3-yl)pyridin-2-amine] returned an inhibition constant (Ki) of 10 to 100 nM.
Regarding `NC1CCCCC1Nc1cc(-c2c[nH]c3ncccc23)cc(Cl)n1` (stereo not drawn) [Example 17, N-[6-chloro-4-(1H-pyrrolo[2,3-b]pyridin-3-yl)pyridin-2-yl]cyclohexane-1,2-diamine], the Ki was under 10 nM.
`CC(C)(O)CNc1cc(-c2c[nH]c3ncccc23)cc(Cl)n1` [Example 18, 1-{[6-chloro-4-(1H-pyrrolo[2,3-b]pyridin-3-yl)pyridin-2-yl]amino}-2-methylpropan-2-ol] returned a Ki of under 10 nM.
`OCCCCNc1cc(-c2c[nH]c3ncccc23)cc(Cl)n1` [Example 19, 4-{[6-chloro-4-(1H-pyrrolo[2,3-b]pyridin-3-yl)pyridin-2-yl]amino}butan-1-ol] registered an inhibitory constant (Ki) of under 10 nM.
With `CC(C)(CO)CCCNc1cc(-c2c[nH]c3ncccc23)cc(Cl)n1` [Example 20], the inhibitory constant (Ki) was under 10 nM.
Still for that read-out and setting: as for `CS(=O)(=O)NC1CCC(Nc2cc(-c3c[nH]c4ncccc34)cc(Cl)n2)CC1` (stereo not drawn) [Example 21, N-(4-{[6-chloro-4-(1H-pyrrolo[2,3-b]pyridin-3-yl)pyridin-2-yl]amino}cyclohexyl)methanesulfonamide], the figure is under 10 nM; as for `CC(=O)NC1CCC(Nc2cc(-c3c[nH]c4ncccc34)cc(Cl)n2)CC1` (stereo not drawn) [Example 22, N-(4-{[6-chloro-4-(1H-pyrrolo[2,3-b]pyridin-3-yl)pyridin-2-yl]-amino}cyclohexyl)acetamide], under 10 nM.
Compound `NC1CCCC(Nc2cc(-c3c[nH]c4ncccc34)cc(Cl)n2)C1` (stereo not drawn) [Example 23, N-[6-chloro-4-(1H-pyrrolo[2,3-b]pyridin-3-yl)pyridin-2-yl]cyclohexane-1,3-diamine] yielded a Ki of under 10 nM.
Compound `CS(=O)(=O)NC1CCCC(Nc2cc(-c3c[nH]c4ncccc34)cc(Cl)n2)C1` (stereo not drawn) [Example 24, N-(3-{[6-chloro-4-(1H-pyrrolo[2,3-b]pyridin-3-yl)pyridin-2-yl]-amino}cyclohexyl)methanesulfonamide] came in with an inhibition constant (Ki) of under 10 nM.
Take `Clc1cc(-c2c[nH]c3ncccc23)cc(NCC2CCOCC2)n1` [Example 25, 6-chloro-4-(1H-pyrrolo[2,3-b]pyridin-3-yl)-N-(tetrahydro-2H-pyran-4-ylmethyl)pyridin-2-amine]: the Ki is under 10 nM.
As for `OC1CCCC(Nc2cc(-c3c[nH]c4ncccc34)cc(Cl)n2)C1` (stereo not drawn) [Example 26, 3-{[6-chloro-4-(1H-pyrrolo[2,3-b]pyridin-3-yl)pyridin-2-yl]amino}cyclohexanol], the Ki is under 10 nM.
Consider `Clc1cc(-c2c[nH]c3ncccc23)cc(NCc2cccnc2)n1` [Example 27, 6-chloro-N-(pyridin-3-ylmethyl)-4-(1H-pyrrolo[2,3-b]pyridin-3-yl)pyridin-2-amine], for which the Ki is under 10 nM.
As for `Clc1cc(-c2c[nH]c3ncccc23)cc(NCC2CCCOC2)n1` (stereo not drawn) [Example 28, 6-chloro-4-(1H-pyrrolo[2,3-b]pyridin-3-yl)-N-(tetrahydro-2H-pyran-3-ylmethyl)pyridin-2-amine], the Ki lay within 10 to 100 nM.
`Clc1cc(-c2c[nH]c3ncccc23)cc(NCC2CCNC2)n1` (stereo not drawn) [Example 29, 6-chloro-N-(pyrrolidin-3-ylmethyl)-4-(1H-pyrrolo[2,3-b]pyridin-3-yl)pyridin-2-amine] displayed an inhibitory constant (Ki) of under 10 nM.
`Cc1cccc(CNc2cc(-c3c[nH]c4ncccc34)cc(Cl)n2)c1C` [Example 30, 6-chloro-N-(2,3-dimethylbenzyl)-4-(1H-pyrrolo[2,3-b]pyridin-3-yl)pyridin-2-amine] gave a Ki of 10 to 100 nM.
The same measure, in the same setting: as for `Clc1cc(-c2c[nH]c3ncccc23)cc(NCc2ccncc2)n1` [Example 31, 6-chloro-N-(pyridin-4-ylmethyl)-4-(1H-pyrrolo[2,3-b]pyridin-3-yl)pyridin-2-amine], the figure is 10 to 100 nM.
`Clc1cc(-c2c[nH]c3ncccc23)cc(NCC2CCCCO2)n1` (stereo not drawn) [Example 32, 6-chloro-4-(1H-pyrrolo[2,3-b]pyridin-3-yl)-N-(tetrahydro-2H-pyran-2-ylmethyl)pyridin-2-amine] showed a Ki of 10 to 100 nM.
On to `Clc1cc(-c2c[nH]c3ncccc23)cc(NC2CCNCC2)n1` [Example 33, 6-chloro-N-piperidin-4-yl-4-(1H-pyrrolo[2,3-b]pyridin-3-yl)pyridin-2-amine], for which the Ki was 10 to 100 nM.

Still in this test, the particulars now being: Table 2; Comparative Example lacking the chloro substituent versus the chloro Example.
As to `N#Cc1cc(-c2c[nH]c3ncccc23)cc(N2CCCCC2)n1` [Comparative Example 8, 6-piperidin-1-yl-4-(1H-pyrrolo[2,3-b]pyridin-3-yl)pyridine-2-carbonitrile, reference compound], the “Ki ratio comparisons (Ki Comparative Example/Ki Example)” value (“Ki ratio comparisons” for short) is 2.
On to `NC(=O)c1cc(-c2c[nH]c3ncccc23)cc(N2CCCCC2)n1` [Comparative Example 9, 6-piperidin-1-yl-4-(1H-pyrrolo[2,3-b]pyridin-3-yl)pyridine-2-carboxamide, reference compound], for which the “Ki ratio comparisons” value was found to be 84.
For the compound `N#Cc1cc(-c2c[nH]c3ncccc23)cc(N[C@H]2CC[C@H](O)CC2)n1` [Comparative Example 10, 6-[(trans-4-hydroxycyclohexyl)amino]-4-(1H-pyrrolo[2,3-b]pyridin-3-yl)pyridine-2-carbonitrile, reference compound], the “Ki ratio comparisons” value came out at 10.
With `NC(=O)c1cc(-c2c[nH]c3ncccc23)cc(N[C@H]2CC[C@H](O)CC2)n1` [Comparative Example 11, 6-[(trans-4-hydroxycyclohexyl)amino]-4-(1H-pyrrolo[2,3-b]pyridin-3-yl)pyridine-2-carboxamide, reference compound], the “Ki ratio comparisons” value is 134.
For the compound `c1cnc2[nH]cc(-c3ccnc(NC4CCCCC4)n3)c2c1` [Comparative Example 12, N-cyclohexyl-4-(1H-pyrrolo[2,3-b]pyridin-3-yl)pyrimidin-2-amine, reference compound], the “Ki ratio comparisons” value is listed as 3.
On the same count and under the same terms, next, `N[C@H]1CC[C@H](Nc2nccc(-c3c[nH]c4ncccc34)n2)CC1` [Comparative Example 13, Trans-N-[4-(1H-pyrrolo[2,3-b]pyridin-3-yl)pyrimidin-2-yl]cyclohexane-1,4-diamine, reference compound]: 12.

One may read the Ki as a measure of affinity in units of concentration, obtained from inhibition or displacement. Read a low Ki as tighter binding.
